A short description of series [1]: Hemolytic activity against mouse Red blood cell incubated for 1 hr. The conditions noted are these: erythrocyte. It counts as toxicity, cell-based.
Series [2] concerns Staphylococcus epidermidis. The series is described as follows: Antimicrobial activity against Staphylococcus epidermidis ATCC 12228 assessed as inhibition of visible bacterial growth incubated for 18 hrs by CLSI based analysis. The class given is functional.
A further series concerns Enterococcus faecalis. Briefly: Antimicrobial activity against Enterococcus faecalis ATCC 19433 assessed as inhibition of visible bacterial growth incubated for 18 hrs by CLSI based analysis. The class given is functional.
The next series deals with Enterococcus faecium. Briefly: Antimicrobial activity against vancomycin-resistant Enterococcus faecium assessed as inhibition of visible bacterial growth incubated for 18 hrs by CLSI based analysis. It counts as functional.
Another series relates to Escherichia coli. The series is described as follows: Antimicrobial activity against Escherichia coli assessed as inhibition of visible bacterial growth incubated for 18 hrs by CLSI based analysis. The class given is functional.
In series [3] the test system is Staphylococcus aureus. Briefly: Antimicrobial activity against Staphylococcus aureus ATCC 25923 assessed as inhibition of visible bacterial growth incubated for 18 hrs by CLSI based analysis. It counts as functional.
The subject of series [4] is Staphylococcus aureus. Briefly: Antimicrobial activity against methicillin-resistant Staphylococcus aureus clinical isolate 2 assessed as inhibition of visible bacterial growth incubated for 18 hrs by CLSI based analysis. The class given is functional.
Another series has as its system Candida albicans. The series is described as follows: Antifungal activity against Candida albicans assessed as reduction in fungal growth incubated for 18 hrs by CLSI based analysis. It counts as functional.
Series [5] in a line: Therapeutic index, ratio of HC5 for hemolytic activity in mouse Red blood cell to MIC for antimicrobial activity against Staphylococcus aureus ATCC 25923 assessed as inhibition of visible bacterial growth. It counts as toxicity, cell-based, RBC. The conditions noted are these: red blood cells, read-out: TI.
In a further series the test system is Bacillus subtilis. The series is described as follows: Antimicrobial activity against Bacillus subtilis ATCC 23875 assessed as inhibition of visible bacterial growth incubated for 18 hrs by CLSI based analysis. It counts as functional.
For series [6], the system named is Staphylococcus aureus. Briefly: Antimicrobial activity against methicillin-resistant Staphylococcus aureus clinical isolate 3 assessed as inhibition of visible bacterial growth incubated for 18 hrs by CLSI based analysis. The class given is functional.
Series [7] deals with Staphylococcus aureus. Briefly: Antimicrobial activity against methicillin-resistant Staphylococcus aureus clinical isolate 4 assessed as inhibition of visible bacterial growth incubated for 18 hrs by CLSI based analysis. It counts as functional.
Series [8] has as its system Staphylococcus aureus. Briefly: Antimicrobial activity against methicillin-resistant Staphylococcus aureus ATCC 43300 assessed as inhibition of visible bacterial growth incubated for 18 hrs by CLSI based analysis. The class given is functional.
The test system of a further series is Enterococcus gallinarum. The series is described as follows: Antimicrobial activity against Enterococcus gallinarum ATCC 49573 assessed as inhibition of visible bacterial growth incubated for 18 hrs by CLSI based analysis. The class given is functional.
In series [9] the test system is Staphylococcus aureus. The series is described as follows: Antimicrobial activity against Staphylococcus aureus assessed as inhibition of visible bacterial growth incubated for 18 hrs by CLSI based analysis. It counts as functional.

Each structure is given as a SMILES string. Converted amounts (≈) assume the structure as drawn.

In series [1], `CC(C)[C@@H]1NC(=O)[C@@H](C(C)C)NC(=O)[C@H](C(C)C)NC(=O)[C@@H](CCCCN)NC(=O)[C@H](Cc2c(C(c3ccccc3)c3ccccc3)[nH]c3ccccc23)NC(=O)[C@@H](C(C)C)NC(=O)[C@@H]2CSC1N2` yielded an HC5 of 74.17 µg/mL. In addition, the MIC in [2] was found to be 6.25 µg/mL (≈ 6.48 µM); with Enterococcus faecalis, 50 µg/mL (≈ 51.9 µM); in the series on Enterococcus faecium it was 50 µg/mL (≈ 51.9 µM); with Escherichia coli it was 3.13 µg/mL (≈ 3.25 µM); in the series on Staphylococcus aureus [3], 12.5 µg/mL (≈ 13 µM); in the series on Staphylococcus aureus [4] it was 12.5 µg/mL (≈ 13 µM). Besides, the MIC in the series with Candida albicans came to 3.13 µg/mL (≈ 3.25 µM); in the series on Bacillus subtilis it was 6.25 µg/mL (≈ 6.48 µM); in the series on Staphylococcus aureus [6], 12.5 µg/mL (≈ 13 µM); with Staphylococcus aureus [7] it was 12.5 µg/mL (≈ 13 µM); in the series on Staphylococcus aureus [8], 12.5 µg/mL (≈ 13 µM); in the series on Enterococcus gallinarum, 25 µg/mL (≈ 25.9 µM). For the same compound, the MIC with Staphylococcus aureus [9] was determined as 3.13 µg/mL (≈ 3.25 µM). For the same compound, in series [5], the selectivity ratio amounted to 5.93.

Consider `CC(C)C[C@H]1NC(=O)[C@H](Cc2c[nH]c3ccccc23)NC(=O)[C@@H](C(C)C)NC(=O)[C@@H]2CSC(N2)[C@H](C(C)C)NC(=O)[C@@H](CCCCN)NC(=O)[C@H](C(C)C)NC1=O`, for which the MIC (in series [2]; in the series on Enterococcus faecalis; with Enterococcus faecium; in the series with Staphylococcus aureus [3]; with Staphylococcus aureus [4]; in the series on Bacillus subtilis) was > 50 µg/mL throughout. The MIC in the series with Staphylococcus aureus [6], in the series with Staphylococcus aureus [7], in the series on Staphylococcus aureus [8] and with Enterococcus gallinarum was > 50 µg/mL throughout.

With `C#CC[C@H]1NC(=O)[C@@H]2CSC(N2)[C@H](C(C)C)NC(=O)[C@@H](C(C)C)NC(=O)[C@H](C(C)C)NC(=O)[C@@H](CCCCN)NC(=O)[C@H](Cc2c(C(c3ccccc3)(c3ccccc3)c3ccccc3)[nH]c3ccccc23)NC1=O`, the MIC in series [2] was determined as 6.25 µg/mL (≈ 6.03 µM); in the series with Enterococcus faecalis, 25 µg/mL (≈ 24.1 µM); with Enterococcus faecium, 25 µg/mL (≈ 24.1 µM); with Escherichia coli, 3.13 µg/mL (≈ 3.02 µM); in the series with Staphylococcus aureus [3] it was 6.25 µg/mL (≈ 6.03 µM); in the series with Staphylococcus aureus [4], 6.25 µg/mL (≈ 6.03 µM). Moreover, the MIC in the series on Candida albicans is 3.13 µg/mL (≈ 3.02 µM); in the series with Bacillus subtilis, 6.25 µg/mL (≈ 6.03 µM); in the series with Staphylococcus aureus [6] it was 12.5 µg/mL (≈ 12.1 µM); in the series on Staphylococcus aureus [7], 6.25 µg/mL (≈ 6.03 µM); in the series on Staphylococcus aureus [8], 6.25 µg/mL (≈ 6.03 µM); in the series with Enterococcus gallinarum, 12.5 µg/mL (≈ 12.1 µM). In addition, the minimum inhibitory concentration (MIC) in the series with Staphylococcus aureus [9] was determined as 3.13 µg/mL (≈ 3.02 µM).

As for `CC(C)C[C@H]1NC(=O)[C@H](Cc2c(C(c3ccccc3)(c3ccccc3)c3ccccc3)[nH]c3ccccc23)NC(=O)[C@@H](C(C)C)NC(=O)[C@@H]2CSC(N2)[C@H](C(C)C)NC(=O)[C@@H](C(C)C)NC(=O)[C@H](C(C)C)NC1=O`, the MIC (in series [2]; in the series on Enterococcus faecalis; in the series with Enterococcus faecium; with Staphylococcus aureus [3]; with Staphylococcus aureus [4]; in the series with Bacillus subtilis) was > 50 µg/mL throughout. Also, the MIC with Staphylococcus aureus [6], in the series on Staphylococcus aureus [7], with Staphylococcus aureus [8] and in the series on Enterococcus gallinarum was > 50 µg/mL each time.

For `CC(C)C[C@H]1NC(=O)[C@H](Cc2c(C(c3ccccc3)c3ccccc3)[nH]c3ccccc23)NC(=O)[C@@H](C(C)C)NC(=O)[C@@H]2CSC(N2)[C@H](C(C)C)NC(=O)[C@@H](C(C)C)NC(=O)[C@H](C(C)C)NC1=O`, the MIC (in series [2]; with Enterococcus faecalis; with Enterococcus faecium; in the series on Staphylococcus aureus [3]; with Staphylococcus aureus [4]; in the series with Bacillus subtilis) was > 50 µg/mL each time. Moreover, the MIC in the series with Staphylococcus aureus [6], in the series on Staphylococcus aureus [7], in the series on Staphylococcus aureus [8] and in the series on Enterococcus gallinarum was > 50 µg/mL throughout.

A word on the MIC: it is the least concentration at which growth counts as inhibited.

Values taken from ChEMBL document CHEMBL6103613 (J Med Chem, 2025).
